What was measured:
human 5HT2C receptor = target: T1, human 5HT2C receptor (Homo sapiens, UniProt P28335); test: Intracellular IP3 accumulation assay (IP Accumulation Assay); format: cell-based; settings: HEK293 cells transfected with human 5HT2C receptor cDNA
T1 construct: expressed in transfected cells; host or cells: HEK293
T1 sequence (P28335 33-458): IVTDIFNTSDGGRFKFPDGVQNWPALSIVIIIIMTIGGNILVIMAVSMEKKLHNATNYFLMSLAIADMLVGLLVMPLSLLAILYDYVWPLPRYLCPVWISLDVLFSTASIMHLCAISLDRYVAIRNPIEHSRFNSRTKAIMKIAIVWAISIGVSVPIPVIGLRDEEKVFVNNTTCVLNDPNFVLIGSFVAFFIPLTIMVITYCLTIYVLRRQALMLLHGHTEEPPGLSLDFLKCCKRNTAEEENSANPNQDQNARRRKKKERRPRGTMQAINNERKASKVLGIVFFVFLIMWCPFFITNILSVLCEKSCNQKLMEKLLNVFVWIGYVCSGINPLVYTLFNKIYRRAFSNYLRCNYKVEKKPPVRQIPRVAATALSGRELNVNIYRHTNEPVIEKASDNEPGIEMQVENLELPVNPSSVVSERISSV
Protocol: HEK293 cells were transfected in 15 cm sterile dishes with or without (control) 16 ug of human 5HT2C receptor cDNA [for example see, Saltzman, A. G., et al. Biochem. Biophys. Res. Commun. 181, 1469-1478 (1991)] using 25 ul of lipofectamine. Cells were then incubated for 3-4 hours at 37° C./5% CO2 and then transfection media was removed and replaced with 100 ul of DMEM. Cells were then plated onto 100 cm sterile dishes. The next day cells were plated into 96 well PDL microtiter plates at a density of 55K/0.2 ml. Six hours latter, media was exchanged with [^3H]inositol (0.25 uCi/well) in inositol free DMEM and plates were incubated at 37° C./5% CO2 overnight. The next day, wells were aspirated and 200 ul of DMEM containing test compound, 10 uM pargyline, and 10 mM LiCl was added to appropriate wells. Plates were then incubated at 37° C./5% CO2 for three hours followed aspiration and by addition of fresh ice cold stop solution (1M KOH, 19 mM Na-borate, 3.8 mM EDTA) to each well. Plates were kept on ice for 5-10 min and the wells were neutralized by addition of 200 ul of fresh ice cold neutralization solution (7.5% HCl). Plates were then frozen until further processing is desired. The lysate was then transferred into 1.5 ml Eppendorf tubes and 1 ml of chloroform/methanol (1:2) was added/tube. […]

5HT2B receptor = 5HT2B receptor (Homo sapiens, UniProt P41595); test: Activity against the 5HT2B receptor (selectivity); format: cell-based
Sequence of 5HT2B receptor (P41595 whole entry): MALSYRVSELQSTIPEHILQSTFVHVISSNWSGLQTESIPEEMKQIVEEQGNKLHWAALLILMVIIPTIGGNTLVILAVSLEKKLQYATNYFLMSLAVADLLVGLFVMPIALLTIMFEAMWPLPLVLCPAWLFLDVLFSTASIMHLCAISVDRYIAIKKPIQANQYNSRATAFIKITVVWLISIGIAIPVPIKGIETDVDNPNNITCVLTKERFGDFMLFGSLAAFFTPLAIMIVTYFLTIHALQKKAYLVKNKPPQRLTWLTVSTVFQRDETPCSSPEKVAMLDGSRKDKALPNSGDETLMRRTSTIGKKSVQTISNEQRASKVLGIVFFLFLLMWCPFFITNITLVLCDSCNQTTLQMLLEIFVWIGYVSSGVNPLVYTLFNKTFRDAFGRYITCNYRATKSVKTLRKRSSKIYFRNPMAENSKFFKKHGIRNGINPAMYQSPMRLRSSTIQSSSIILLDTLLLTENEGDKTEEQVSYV

5HT2A receptor = 5HT2A receptor (Homo sapiens, UniProt P28223); test: EC50 against the 5HT2A receptor (selectivity); format: cell-based
Sequence of 5HT2A receptor (P28223 whole entry): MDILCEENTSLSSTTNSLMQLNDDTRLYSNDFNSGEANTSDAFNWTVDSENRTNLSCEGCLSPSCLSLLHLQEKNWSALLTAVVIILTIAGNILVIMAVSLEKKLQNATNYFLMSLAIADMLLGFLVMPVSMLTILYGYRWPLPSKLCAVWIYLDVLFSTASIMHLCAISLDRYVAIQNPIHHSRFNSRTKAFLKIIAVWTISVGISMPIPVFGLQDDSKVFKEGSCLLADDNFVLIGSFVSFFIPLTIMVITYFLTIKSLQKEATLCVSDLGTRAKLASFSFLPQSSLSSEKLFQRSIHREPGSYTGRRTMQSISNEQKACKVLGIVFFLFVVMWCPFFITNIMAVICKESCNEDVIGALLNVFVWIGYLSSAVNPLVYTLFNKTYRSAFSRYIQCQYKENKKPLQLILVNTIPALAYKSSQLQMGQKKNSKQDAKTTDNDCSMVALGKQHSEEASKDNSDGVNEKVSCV

basal food intake = test: Inhibition of basal food intake in rats; format: in vivo, Male Sprague-Dawley rats; settings: p.o.; for ED50: Rattus norvegicus, po
Protocol: Male Sprague-Dawley rats (225-325 g) were accustomed to a reverse day/night schedule (lights on 6:30 pm to 10:30 am) for at least 10 days prior to testing. On the test day, the animals were weighed and placed into individual cages (no bedding) at 9:00 am with free access to water. At 10:00 am, animals were injected with test compound or vehicle (2 ml/kg, p.o.), with treatment groups counter-balanced according to animal weights. Immediately upon lights out at 10:30 am, each animal was presented with a pre-weighed amount of food in a dish. Food consumption over different time points was then determined by weighing the food cup at 2, 4, 6 and 22 hrs after the food was presented. Thus, food consumption was measured at 2.5, 4.5, 6.5, and 22.5 hrs post-injection.

For `C[C@@H]1CNCCN1c1cccc(Cl)c1F` [Compound 23, (R)-1-(3-Chloro-2-fluoro-phenyl)-2-methyl-piperazine], the EC50 (human 5HT2C receptor) was 7.4 nM, the “activity against the 5HT2B receptor” value (5HT2B receptor) was “essentially inactive” and the EC50 (5HT2A receptor) was 44 nM.
With `C[C@@H]1CNCCN1c1cc(Cl)ccc1F` [Compound 44, (R)-1-(5-Chloro-2-fluoro-phenyl)-2-methyl-piperazine] the EC50 (human 5HT2C receptor) was 8 nM, the “activity against the 5HT2B receptor” value (5HT2B receptor) was “essentially inactive” and the EC50 (5HT2A receptor) was 529 nM. It also gave an ED50 (basal food intake; 2 h, 2 hours after food presentation) of 33 µmol/kg, an ED50 (basal food intake; 4 h, 4 hours after food presentation) of 58 µmol/kg and an ED50 (basal food intake; 6 h, 6 hours after food presentation) of 97 µmol/kg. The ED50 (basal food intake; 22 h, 22 hours after food presentation) was 441 µmol/kg, the “effect on food intake relative to vehicle-treated controls” value (basal food intake; all doses, first 4 hr after food presentation) was “inhibited food intake relative to vehicle-treated controls” and the “duration of food intake inhibition” value (basal food intake; highest dose tested) was “maintained to 22 hrs after food presentation”.

From patent US20070179155A1, “N-phenyl-piperazine derivatives and methods of prophylaxis or treatment of 5ht2c receptor associated diseases” (priority 2003, published 2007)
